The values below come from ChEMBL document CHEMBL1133889, “Discovery and SAR of org 24598-a selective glycine uptake inhibitor” (Bioorg Med Chem Lett, 2001).

Molecules are shown by their SMILES.

Experiment [1] deals with T1, Sodium- and chloride-dependent glycine transporter 1 (Homo sapiens, UniProt P48067).
T1 sequence (P48067 whole entry): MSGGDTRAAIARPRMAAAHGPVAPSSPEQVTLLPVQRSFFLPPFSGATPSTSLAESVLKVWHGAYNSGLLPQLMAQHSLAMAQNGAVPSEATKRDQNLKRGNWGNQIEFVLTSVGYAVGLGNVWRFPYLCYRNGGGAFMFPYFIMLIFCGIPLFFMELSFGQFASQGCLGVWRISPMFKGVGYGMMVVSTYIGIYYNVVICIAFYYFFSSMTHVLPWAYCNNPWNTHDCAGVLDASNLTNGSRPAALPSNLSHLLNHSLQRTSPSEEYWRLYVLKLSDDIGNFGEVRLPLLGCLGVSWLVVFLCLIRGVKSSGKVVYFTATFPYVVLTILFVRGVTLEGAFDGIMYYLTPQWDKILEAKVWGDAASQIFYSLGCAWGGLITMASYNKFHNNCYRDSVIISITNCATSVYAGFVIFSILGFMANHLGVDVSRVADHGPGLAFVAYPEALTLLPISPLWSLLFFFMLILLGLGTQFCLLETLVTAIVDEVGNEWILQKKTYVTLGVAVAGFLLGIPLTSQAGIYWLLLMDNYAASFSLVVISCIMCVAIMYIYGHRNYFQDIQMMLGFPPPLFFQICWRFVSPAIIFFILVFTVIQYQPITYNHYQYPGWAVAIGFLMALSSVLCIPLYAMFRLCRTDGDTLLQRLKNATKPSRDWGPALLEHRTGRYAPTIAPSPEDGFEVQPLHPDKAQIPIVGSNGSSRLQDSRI
Nature of the experiment: Inhibition of [3H]glycine uptake using CHO cells transfected with GlyT-1b transporter. Format: cell-based.

In another experiment the target is Glutamate NMDA receptor. Nature of the experiment: Binding affinity to NMDA glycine co-agonist site with [3H]-MDL- 105,519 as radioligand in rat brain membrane. It counts as cell membranes.
Experiment [2] concerns the target Beta-1 adrenergic receptor (Homo sapiens, UniProt P08588). Nature of the experiment: Binding affinity of compound towards Beta-1 adrenergic receptor was determined.
For experiment [3], the species on record is Rattus norvegicus. Nature of the experiment: Inhibition of [3H]- GABA uptake in rat brain. Format: functional, organism-based.
The target of experiment [4] is T2, Alpha-2C adrenergic receptor (Homo sapiens, UniProt P18825).
T2 sequence (P18825 whole entry): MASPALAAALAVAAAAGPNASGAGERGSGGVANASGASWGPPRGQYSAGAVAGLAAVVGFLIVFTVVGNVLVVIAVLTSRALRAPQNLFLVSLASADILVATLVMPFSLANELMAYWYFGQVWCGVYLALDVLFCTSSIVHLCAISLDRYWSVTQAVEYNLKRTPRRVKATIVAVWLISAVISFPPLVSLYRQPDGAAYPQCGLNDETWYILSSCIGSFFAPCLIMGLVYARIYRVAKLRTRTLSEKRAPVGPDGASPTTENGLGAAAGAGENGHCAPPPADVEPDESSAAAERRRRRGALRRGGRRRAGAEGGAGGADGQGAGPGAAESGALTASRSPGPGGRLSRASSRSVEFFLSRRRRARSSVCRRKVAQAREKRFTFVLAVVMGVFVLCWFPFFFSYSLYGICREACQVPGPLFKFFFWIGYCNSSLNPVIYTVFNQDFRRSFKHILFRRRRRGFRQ
Nature of the experiment: Binding affinity of compound towards Alpha-2C adrenergic receptor was determined.

For experiment [5], the species on record is Rattus norvegicus. Nature of the experiment: Inhibition of [3H]- noradrenaline uptake in rat brain. It counts as functional, organism-based.
Experiment [6] deals with Beta-2 adrenergic receptor (Homo sapiens, UniProt P07550). Nature of the experiment: Binding affinity of compound towards Beta-2 adrenergic receptor was determined.
Sequence of Beta-2 adrenergic receptor (P07550 whole entry): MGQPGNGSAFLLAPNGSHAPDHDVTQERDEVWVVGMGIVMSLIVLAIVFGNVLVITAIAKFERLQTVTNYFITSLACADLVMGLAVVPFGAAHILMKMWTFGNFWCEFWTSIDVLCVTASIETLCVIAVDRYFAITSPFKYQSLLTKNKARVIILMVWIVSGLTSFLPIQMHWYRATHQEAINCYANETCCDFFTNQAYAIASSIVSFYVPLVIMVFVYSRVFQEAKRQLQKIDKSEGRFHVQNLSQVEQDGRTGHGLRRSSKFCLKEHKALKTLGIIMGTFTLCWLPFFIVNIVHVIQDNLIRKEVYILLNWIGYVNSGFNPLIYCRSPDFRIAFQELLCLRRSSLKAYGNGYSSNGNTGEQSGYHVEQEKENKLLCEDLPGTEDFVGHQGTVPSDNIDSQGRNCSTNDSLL
For experiment [7], the species on record is Rattus norvegicus. Nature of the experiment: Inhibition of [3H]- serotonin uptake in rat brain. Format: functional, organism-based.
The next experiment concerns the target D(2) dopamine receptor (Rattus norvegicus, UniProt P61169). Nature of the experiment: Binding affinity of compound towards Dopamine receptor D2S was determined.
Experiment [8] addresses T3, Alpha-1A adrenergic receptor (Homo sapiens, UniProt P35348).
T3 sequence (P35348 whole entry): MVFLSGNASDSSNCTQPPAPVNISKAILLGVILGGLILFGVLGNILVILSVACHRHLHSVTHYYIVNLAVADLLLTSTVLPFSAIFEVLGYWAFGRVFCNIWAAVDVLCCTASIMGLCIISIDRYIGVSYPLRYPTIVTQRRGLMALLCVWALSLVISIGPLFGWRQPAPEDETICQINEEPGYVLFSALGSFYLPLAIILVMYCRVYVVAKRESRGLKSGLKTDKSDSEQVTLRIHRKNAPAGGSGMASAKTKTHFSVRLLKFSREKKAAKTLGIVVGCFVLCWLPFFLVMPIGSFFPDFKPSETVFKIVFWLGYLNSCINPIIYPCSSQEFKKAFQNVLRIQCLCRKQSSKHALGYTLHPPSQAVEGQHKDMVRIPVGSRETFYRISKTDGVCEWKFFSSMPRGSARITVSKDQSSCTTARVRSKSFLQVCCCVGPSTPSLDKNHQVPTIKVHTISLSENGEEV
Nature of the experiment: Binding affinity of compound towards Binding affinity towards Alpha-1A adrenergic receptor was determined.

Experiment [9] has as its target T4, 5-hydroxytryptamine receptor 1A (Rattus norvegicus, UniProt P19327).
T4 sequence (P19327 whole entry): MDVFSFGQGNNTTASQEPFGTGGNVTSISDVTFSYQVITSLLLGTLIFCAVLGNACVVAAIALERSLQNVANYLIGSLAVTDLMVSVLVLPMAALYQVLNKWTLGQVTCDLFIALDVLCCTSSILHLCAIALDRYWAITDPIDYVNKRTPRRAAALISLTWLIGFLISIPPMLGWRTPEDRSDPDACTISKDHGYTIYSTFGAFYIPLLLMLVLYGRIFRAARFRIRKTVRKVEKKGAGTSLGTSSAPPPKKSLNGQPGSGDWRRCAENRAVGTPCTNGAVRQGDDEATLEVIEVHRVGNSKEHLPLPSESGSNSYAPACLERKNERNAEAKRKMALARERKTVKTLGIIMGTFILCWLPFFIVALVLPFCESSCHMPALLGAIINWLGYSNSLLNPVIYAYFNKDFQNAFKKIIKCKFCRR
Nature of the experiment: Binding affinity of compound towards 5-hydroxytryptamine 1A receptor was determined.

Experiment [10] deals with 5-hydroxytryptamine receptor 2A (Rattus norvegicus, UniProt P14842). Nature of the experiment: Binding affinity of compound towards serotonin 5-hydroxytryptamine 2A receptor was determined.
Sequence of 5-hydroxytryptamine receptor 2A (P14842 whole entry): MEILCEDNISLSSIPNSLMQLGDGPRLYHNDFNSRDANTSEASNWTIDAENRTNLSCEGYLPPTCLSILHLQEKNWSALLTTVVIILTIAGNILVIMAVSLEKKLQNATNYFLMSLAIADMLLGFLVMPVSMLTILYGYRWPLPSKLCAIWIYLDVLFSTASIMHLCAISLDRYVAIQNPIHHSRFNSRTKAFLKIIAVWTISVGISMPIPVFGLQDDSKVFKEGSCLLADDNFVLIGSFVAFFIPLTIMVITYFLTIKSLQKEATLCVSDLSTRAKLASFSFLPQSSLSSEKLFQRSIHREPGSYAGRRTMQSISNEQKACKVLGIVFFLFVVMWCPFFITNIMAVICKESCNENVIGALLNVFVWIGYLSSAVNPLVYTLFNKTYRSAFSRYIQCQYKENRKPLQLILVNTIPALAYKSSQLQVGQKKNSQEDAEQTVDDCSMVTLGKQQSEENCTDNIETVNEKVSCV
For experiment [11], the target named is 5-hydroxytryptamine receptor 7 (Rattus norvegicus, UniProt P32305). Nature of the experiment: Binding affinity of compound towards serotonin 5-hydroxytryptamine 7 receptor was determined.
Sequence of 5-hydroxytryptamine receptor 7 (P32305 whole entry): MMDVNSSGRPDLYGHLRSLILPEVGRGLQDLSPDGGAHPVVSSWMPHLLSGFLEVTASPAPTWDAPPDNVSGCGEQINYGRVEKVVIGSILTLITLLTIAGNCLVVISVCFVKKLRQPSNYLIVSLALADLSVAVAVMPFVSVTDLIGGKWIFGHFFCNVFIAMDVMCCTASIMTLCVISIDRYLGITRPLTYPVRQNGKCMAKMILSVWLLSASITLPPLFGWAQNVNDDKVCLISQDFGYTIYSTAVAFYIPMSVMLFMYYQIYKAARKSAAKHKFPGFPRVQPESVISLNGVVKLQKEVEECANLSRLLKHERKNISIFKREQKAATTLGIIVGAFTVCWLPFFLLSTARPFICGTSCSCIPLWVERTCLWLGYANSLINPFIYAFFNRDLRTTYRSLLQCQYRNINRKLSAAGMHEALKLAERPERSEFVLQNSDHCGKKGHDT
The target of experiment [12] is 5-hydroxytryptamine receptor 6 (Rattus norvegicus, UniProt P31388). Nature of the experiment: Binding affinity of compound towards serotonin 5-hydroxytryptamine 6 receptor was determined.
Sequence of 5-hydroxytryptamine receptor 6 (P31388 whole entry): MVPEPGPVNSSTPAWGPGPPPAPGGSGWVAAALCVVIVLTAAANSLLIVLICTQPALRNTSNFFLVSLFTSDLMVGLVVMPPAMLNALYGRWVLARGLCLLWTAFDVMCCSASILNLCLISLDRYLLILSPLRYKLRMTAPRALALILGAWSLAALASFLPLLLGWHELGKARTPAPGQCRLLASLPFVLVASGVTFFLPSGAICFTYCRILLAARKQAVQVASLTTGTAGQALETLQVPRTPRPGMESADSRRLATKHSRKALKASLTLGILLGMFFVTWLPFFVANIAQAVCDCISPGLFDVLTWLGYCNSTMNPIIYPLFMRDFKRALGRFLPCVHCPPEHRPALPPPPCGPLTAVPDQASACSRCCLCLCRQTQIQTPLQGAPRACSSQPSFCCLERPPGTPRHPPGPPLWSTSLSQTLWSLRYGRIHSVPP
Experiment [13] addresses T5, Alpha-1B adrenergic receptor (Homo sapiens, UniProt P35368).
T5 sequence (P35368 whole entry): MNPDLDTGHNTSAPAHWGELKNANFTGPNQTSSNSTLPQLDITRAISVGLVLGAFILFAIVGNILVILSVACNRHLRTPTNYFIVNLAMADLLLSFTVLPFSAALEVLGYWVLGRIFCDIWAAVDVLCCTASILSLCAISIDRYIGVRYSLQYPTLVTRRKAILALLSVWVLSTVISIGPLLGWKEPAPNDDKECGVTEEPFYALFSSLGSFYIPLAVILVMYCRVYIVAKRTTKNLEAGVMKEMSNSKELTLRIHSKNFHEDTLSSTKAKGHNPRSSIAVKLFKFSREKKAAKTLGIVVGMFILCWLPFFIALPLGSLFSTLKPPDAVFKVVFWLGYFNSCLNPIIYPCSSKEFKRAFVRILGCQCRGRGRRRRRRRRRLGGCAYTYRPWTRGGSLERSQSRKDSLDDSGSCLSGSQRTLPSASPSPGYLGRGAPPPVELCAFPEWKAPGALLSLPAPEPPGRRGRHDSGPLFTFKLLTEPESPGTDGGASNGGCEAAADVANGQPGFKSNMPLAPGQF
Nature of the experiment: The compound was tested for the binding affinity towards Alpha-1B adrenergic receptor.

Experiment [14] deals with T6, 5-hydroxytryptamine receptor 2C (Rattus norvegicus, UniProt P08909).
T6 sequence (P08909 whole entry): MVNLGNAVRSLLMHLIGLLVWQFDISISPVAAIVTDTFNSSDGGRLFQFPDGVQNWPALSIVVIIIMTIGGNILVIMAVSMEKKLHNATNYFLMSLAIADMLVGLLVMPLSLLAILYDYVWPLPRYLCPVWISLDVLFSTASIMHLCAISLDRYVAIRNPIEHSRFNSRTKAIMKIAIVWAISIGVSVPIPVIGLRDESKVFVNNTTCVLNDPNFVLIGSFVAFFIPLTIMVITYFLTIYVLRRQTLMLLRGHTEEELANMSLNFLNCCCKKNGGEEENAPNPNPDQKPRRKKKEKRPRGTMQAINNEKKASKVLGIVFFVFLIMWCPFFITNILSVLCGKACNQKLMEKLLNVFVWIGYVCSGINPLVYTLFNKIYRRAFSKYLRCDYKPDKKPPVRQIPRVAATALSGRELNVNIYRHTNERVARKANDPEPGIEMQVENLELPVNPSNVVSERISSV
Nature of the experiment: Binding affinity of compound towards serotonin 5-hydroxytryptamine 2C receptor was determined.

Experiment [15] is filed under the species Rattus norvegicus. Nature of the experiment: Inhibition of [3H]- dopamine uptake in rat brain. Format: functional, organism-based.
The target in another experiment is T7, D(4) dopamine receptor (Rattus norvegicus, UniProt P30729).
T7 sequence (P30729 whole entry): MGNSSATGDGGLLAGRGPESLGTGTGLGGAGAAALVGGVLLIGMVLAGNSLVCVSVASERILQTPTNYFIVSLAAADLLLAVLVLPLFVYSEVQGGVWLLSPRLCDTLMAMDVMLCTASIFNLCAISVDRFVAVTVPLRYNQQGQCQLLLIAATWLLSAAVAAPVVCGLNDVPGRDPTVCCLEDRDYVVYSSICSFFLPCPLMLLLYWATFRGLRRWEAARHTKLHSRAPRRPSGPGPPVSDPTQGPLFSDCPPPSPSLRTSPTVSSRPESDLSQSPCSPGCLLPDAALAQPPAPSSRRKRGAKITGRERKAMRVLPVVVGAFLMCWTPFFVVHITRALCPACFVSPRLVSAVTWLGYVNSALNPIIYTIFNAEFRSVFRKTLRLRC
Nature of the experiment: Binding affinity of compound towards Dopamine receptor D4 was determined.

Sequence of D(2) dopamine receptor (P61169 whole entry): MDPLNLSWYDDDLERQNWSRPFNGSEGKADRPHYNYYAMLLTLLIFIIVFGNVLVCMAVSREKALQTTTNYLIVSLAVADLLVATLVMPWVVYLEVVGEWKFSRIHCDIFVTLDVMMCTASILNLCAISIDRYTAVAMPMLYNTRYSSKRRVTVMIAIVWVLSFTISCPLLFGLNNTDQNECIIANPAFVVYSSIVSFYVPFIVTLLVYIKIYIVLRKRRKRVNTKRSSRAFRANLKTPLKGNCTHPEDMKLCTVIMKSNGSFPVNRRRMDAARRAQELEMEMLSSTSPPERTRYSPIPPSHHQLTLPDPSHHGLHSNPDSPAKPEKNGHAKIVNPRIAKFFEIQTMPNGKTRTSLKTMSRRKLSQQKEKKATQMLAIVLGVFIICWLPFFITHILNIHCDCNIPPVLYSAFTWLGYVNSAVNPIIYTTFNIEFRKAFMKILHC
Sequence of Beta-1 adrenergic receptor (P08588 whole entry): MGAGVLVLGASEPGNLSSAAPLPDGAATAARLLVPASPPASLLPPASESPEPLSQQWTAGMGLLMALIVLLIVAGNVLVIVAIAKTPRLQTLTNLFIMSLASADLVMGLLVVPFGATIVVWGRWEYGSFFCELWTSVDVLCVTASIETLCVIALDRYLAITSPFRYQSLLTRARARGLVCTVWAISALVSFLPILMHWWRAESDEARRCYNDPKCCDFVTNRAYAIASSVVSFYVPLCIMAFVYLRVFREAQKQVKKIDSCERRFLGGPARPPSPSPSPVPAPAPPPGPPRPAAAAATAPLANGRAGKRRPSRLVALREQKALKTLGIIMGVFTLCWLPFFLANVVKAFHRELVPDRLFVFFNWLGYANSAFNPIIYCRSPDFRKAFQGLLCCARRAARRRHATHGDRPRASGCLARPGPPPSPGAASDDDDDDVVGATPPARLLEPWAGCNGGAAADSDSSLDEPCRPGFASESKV

The IC50 is the midpoint of a concentration-inhibition curve. A lower IC50 goes with greater potency. `CN(CCC(Oc1ccccc1Cl)c1ccccc1)CC(=O)O` (stereo not given): in [1], the IC50 is 12.6 µM.
On the same count and under the same terms, under `CN(CCC(Oc1ccc(C(F)(F)F)cc1)c1ccc(F)cc1)CC(=O)O` (stereo not given) stands 0.251 µM.
Still for that read-out and setting: under `Cc1ccc(OC(CCN(C)CC(=O)O)c2ccccc2)cc1` (stereo not given) stands 2.51 µM; under `CN(CCC(Oc1cccc(C(F)(F)F)c1)c1ccccc1)CC(=O)O` (stereo not given), 2.51 µM; under `CN(CC[C@@H](Oc1ccc(-c2ccccc2)cc1)c1ccccc1)CC(=O)O`, 0.151 µM.
The same measure, in the same setting: as for `CN(CCC(Oc1ccc(C(F)(F)F)cc1)c1ccccc1)CC(=O)O` (stereo not given), the figure is 0.316 µM; as for `CN(CCC(Oc1ccc(C(F)(F)F)cc1)c1ccc(Cl)cc1)CC(=O)O` (stereo not given), 0.1 µM.
`COc1ccc(C(CCN(C)CC(=O)O)Oc2ccc(C(F)(F)F)cc2)cc1` (stereo not given) gave an IC50 in experiment [1] of 0.501 µM.
As to `CN(CCC(Oc1ccc(Cl)c(Cl)c1)c1ccccc1)CC(=O)O` (stereo not given), it took 0.501 µM to reach half-maximal inhibition in experiment [1] (IC50). This lies in the sub-micromolar range.
Still for that read-out and setting: as for `CN(CCC(Oc1ccc(S(C)(=O)=O)cc1)c1ccccc1)CC(=O)O` (stereo not given), the figure is 100 µM; as for `COc1ccc(OC(CCN(C)CC(=O)O)c2ccccc2)cc1` (stereo not given), 3.98 µM; as for `CN(CC[C@H](Oc1ccc(C(C)(C)C)cc1)c1ccccc1)CC(=O)O`, 11.7 µM.
`CN(CC[C@@H](Oc1ccc(C(C)(C)C)cc1)c1ccccc1)CC(=O)O` showed a 50% inhibitory concentration (IC50) in experiment [1] of 0.447 µM.
By Ki is commonly meant a measure of affinity in units of concentration, obtained from inhibition or displacement. The low end stands for a stronger hold on the target, the high end for a looser hold on the target. `CN(CC[C@@H](Oc1ccc(C(F)(F)F)cc1)c1ccccc1)CC(=O)[O-].[Li+]` came in with a Log Ki on Glutamate NMDA receptor above -4. The Ki (in experiment [2]; in [4]; in experiment [6]; on D(2) dopamine receptor; in experiment [8]; in experiment [9]) was above 10 µM throughout. In addition, the Ki (in experiment [10]; in experiment [11]; in experiment [12]; in experiment [13]; in [14]; at D(4) dopamine receptor) was above 10 µM throughout. Further, the IC50 was above 100 µM in the experiment filed under Rattus norvegicus [3]; above 100 µM in the experiment filed under Rattus norvegicus [5]; 0.126 µM in [1]; 50.1 µM in the experiment filed under Rattus norvegicus [7]; above 100 µM in the experiment listed under Rattus norvegicus [15].
Take `CN(CC[C@H](Oc1ccc(-c2ccccc2)cc1)c1ccccc1)CC(=O)O`: it took 0.977 µM to reach half-maximal inhibition in experiment [1] (IC50).
Still for that read-out and setting: under `CN(CCC(=O)O)CCC(Oc1ccc(C(F)(F)F)cc1)c1ccccc1` (stereo not given) stands 31.6 µM; under `CN(CCCC(=O)O)CCC(Oc1ccc(C(F)(F)F)cc1)c1ccccc1` (stereo not given), 100 µM.
Still for that read-out and setting: under `CN(CCC(Cc1ccc(C(F)(F)F)cc1)c1ccccc1)CC(=O)O` (stereo not given) stands 1 µM; under `COc1ccccc1OC(CCN(C)CC(=O)O)c1ccccc1` (stereo not given), 20 µM.
The same measure, in the same setting: as for `CN(CC[C@H](Oc1ccc(C(F)(F)F)cc1)c1ccccc1)CC(=O)O`, the figure is 2.63 µM; as for `CN(CCC(Oc1ccc(Cl)cc1)c1ccccc1)CC(=O)O` (stereo not given), 1.26 µM; as for `CCN(CCC(Oc1ccc(C(F)(F)F)cc1)c1ccccc1)CC(=O)O` (stereo not given), 5.01 µM.
For `CN(CCC(Oc1ccc(Cl)c(C(F)(F)F)c1)c1ccccc1)CC(=O)O` (stereo not given), half-maximal inhibition in [1] (IC50) required 0.398 µM.
